Reference: patent publication US11279736B2, “Conformationally-preorganized, MiniPEG-containing gamma-peptide nucleic acids” (CARNEGIE MELLON UNIVERSITY, priority 2011, dated 2022)
Read-outs that look alike come from different tables or passages of the source. Marks after values point to notes of the source that are not given here. [RMPγPNA-N] = PNA unit with R-MP-gamma backbone modification (N: the base)

How the values were obtained:
[1] = Water solubility, saturated concentration by UV-spectroscopy; type: physicochemical; conditions: saturated solution in water
Experimental: To determine whether inclusion of miniPEG in the backbone of a Formula I PNA has an effect on water solubility of the resultant oligomer, saturating concentrations of PNA6 through 10 (Table 1) were prepared in water and the concentrations of each solution was measured by UV-spectroscopy. The incorporation of a single MP unit enhances the solubility of PNA6 by nearly 2-fold (Table 5). The solubility of the oligomers is further improved, albeit to a smaller extent, with additional MP units.

[2] = tested on: immobilized complementary DNA; test: Surface plasmon resonance (SPR) hybridization kinetics; type: binding; conditions: for Kd / association rate constant ka / dissociation rate constant kd: SPR; for association rate constant ka / dissociation rate constant kd: 1:1 binding model; for dissociation rate constant kd: † values approach limits of detection
Experimental: FIG. 4 illustrates surface plamon resonance (SPR) sensorgrams (solid black lines) and fits (dotted lines) for hybridization of PNA probes to immobilized complementary DNA. Solutions contained 30 nM PNA. Error bars at t=420 sec illustrate standard deviations for three separate trials.
Surface plasmon resonance (SPR) analysis is used to study the hybridization kinetics of ^R-MPγPNA-DNA and ^R-MPγPNA-RNA duplexes. Briefly, SPR was performed as follows. According to one embodiment, the PNA probe was immobilized to the chip while the DNA target was captured from solution. In another embodiment, a biotinylated version of the DNA target is immobilized on a streptavidin-conjugated, carboxymethylated dextran chip at a relatively low surface density (ca. 100 response units) of DNA targets to limit mass transport effects on the association kinetics. Solutions containing 10-50 nM PNA oligomers are allowed to flow over the chip for about 420 seconds, at which point the flow is switched to a PNA-free buffer to allow net dissociation of the hybridized PNA.

[3] = tested on: complementary RNA strand; test: UV-melting / van't Hoff analysis of PNA-RNA hybrid duplexes; type: binding
Experimental: (§1) FIGS. 2A-2B illustrate UV-melting profiles of PNA-DNA (FIG. 2A) and PNA-RNA (FIG. 2B) hybrid duplexes at a strand concentration of […] each in 10 mM sodium phosphate buffer at pH 7.4. While both the heating and cooling runs were performed because they both have nearly identical profiles UV-melting for only the heating runs are shown.
A similar pattern is observed for a R-MP-γPNA-RNA duplex, but the observed increase in thermal stability is lower for a R-MP-γPNA-RNA duplex as compared to a R-MP-γPNA-DNA duplex (FIG. 3B). The enhancement in thermal stability of a R-MP-γPNA-RNA duplex is only 3° C. for the first R-MP-γPNA-monomer that is incorporated into the PNA oligomer and this gain in thermal stability reduces to about 1.2° C. per R-MP-γPNA monomer for an oligomer made entirely R-MP-γPNA (PNA5). In contrast the gain in thermal stability is about 2.3° C./unit for R-MP-γPNA-DNA duplexes.
(§2) Further insights related to the contribution of miniPEG to the stability of the PNA-DNA duplex was obtained from van′t Hoff analysis. Data in Table 2 show the thermodynamic parameters associated with hybridization of PNA1 through 5 to a complementary DNA or RNA strand.

[4] = tested on: complementary DNA strand; test: UV-melting / van't Hoff analysis of PNA-DNA hybrid duplexes; type: binding; conditions: PNA-DNA duplex, 298 K; for Kd: UV melting; for −ΔG° / −ΔH° / −ΔTS°: averages of three trials
Experimental: as §1
UV-melting experiments were performed to determine the effect of MP on the thermal stability of PNA oligomers following hybridization to DNA or an RNA. FIG. 3A illustrates that the incorporation of a single miniPEG side-chain stabilized a PNA-DNA duplex by 4° C. […] However, increase in thermal stability tapers off to a value of about 2.3° C. per unit for the fully-modified oligomer, that is an oligomer made up of R-MP-γPNA groups only (e.g., PNA5).
as §2

[5] = tested on: DNA: 3′-[…]-5, X = A, C, G, T (SEQ ID NO: 11); conditions: PNA-DNA, cited from earlier work
[6] = tested on: RNA: 3′-CGUACAXACU-5, X = A, C, G, U (SEQ ID NO: 12); conditions: PNA-RNA, cited from earlier work
[7] = ratio of dissociation and association rate constants, † values uncertain, read-out: equilibrium dissociation constant Kd
[8] = PNA-RNA duplex, 298 K, UV-melting curve fitting
[9] = range over mismatches, earlier study

H-ACGGGTAGAATAACAT-NH2 [PNA7] (PNA; 1 R-MP-gamma unit; C-terminal amide; modified_base (8)..(8) R-MP-gamma-backbone modified nucleotide)
Sat. conc. [1]: 76 mM

H-ACGGGTAGAATAACAT-NH2 [PNA8] (PNA; 3 R-MP-gamma units; C-terminal amide; modified_base (1)..(1) R-MP-gamma-backbone modified nucleotide; modified_base (8)..(8) R-MP-gamma-backbone modified nucleotide; modified_base (15)..(15) R-MP-gamma-backbone modified nucleotide)
Sat. conc. [1]: 108 mM

H-GCATGTTTGA-NH2 (all [RMPγPNA-N], methylation of C not given here; C-terminal amide) [PNA5]
Kd [2, 7]: 0.054 nM

H-GCATGTTTGA-NH2 [PNA1] (all peptide nucleic acid (PNA); C-terminal amide)
Kd [3, 8]: 0.035 nM
−ΔG° [3, 8]: 14.3 kcal/mol
−ΔH° [3, 8]: 69.1 kcal/mol
−ΔTS° [3, 8]: 54.7 kcal/mol
differential Tm (ΔTm), RNA versus DNA binding ([3]; duplex with RNA compared to duplex with DNA): 10 °C
association rate constant ka [2]: 470000 M⁻¹ s⁻¹
dissociation rate constant kd [2]: 0.0013 s⁻¹
Kd ([2]; read-out: Kd): 2.8 nM
Kd [4]: 2.5 nM
−ΔG° [4]: 11.7 ± 0.24 kcal/mol
−ΔH° [4]: 65.2 ± 1.2 kcal/mol
−ΔTS° [4]: 53.5 ± 1.2 kcal/mol
Tm ([5]; C<>T mismatch): 31 °C
ΔTm between the perfect match and mismatch ([5]; C<>T mismatch): (−14)^† ° C.
Tm ([5]; G<>T mismatch): 31 °C
ΔTm between the perfect match and mismatch ([5]; G<>T mismatch): (−14) ° C.
Tm ([5]; T(U)<>T mismatch): 35 °C
ΔTm between the perfect match and mismatch ([5]; T(U)<>T mismatch): (−10) ° C.
Tm ([5]; X = A (A-T perfect match)): 45 °C
ΔTm, single-base mismatch (X=C, G, T) [5, 9]: −10 to −14 °C
Tm ([6]; C<>T mismatch): 37 °C
ΔTm between the perfect match and mismatch ([6]; C<>T mismatch): (−18) ° C.
Tm ([6]; G<>T mismatch): 44 °C
ΔTm between the perfect match and mismatch ([6]; G<>T mismatch): (−11) ° C.
Tm ([6]; T(U)<>T mismatch): 40 °C
ΔTm between the perfect match and mismatch ([6]; T(U)<>T mismatch): (−15) ° C.
Tm ([6]; X = A (A-T perfect match)): 55 °C
ΔTm, single-base mismatch (X=C, G, T) [6, 9]: −11 to −18 °C

H-GCATGTTTGA-NH2 [PNA3] (PNA; 3 R-MP-gamma units; C-terminal amide; modified_base (4)..(4) R-MP-gamma-backbone modified nucleotide; modified_base (6)..(6) R-MP-gamma-backbone modified nucleotide; modified_base (8)..(8) R-MP-gamma-backbone modified nucleotide)
−ΔG° [3, 8]: 17 kcal/mol
−ΔH° [3, 8]: 83.7 kcal/mol
−ΔTS° [3, 8]: 66.9 kcal/mol
association rate constant ka [2]: 620000 M⁻¹ s⁻¹
dissociation rate constant kd [2]: 0.00019 s⁻¹
Kd [2, 7]: 0.3 nM
Kd [4]: 0.051 nM
−ΔG° [4]: 14.1 ± 0.24 kcal/mol
−ΔH° [4]: 75.5 ± 2.63 kcal/mol
−ΔTS° [4]: 61.2 ± 2.63 kcal/mol

H-GCATGTTTGA-NH2 [PNA4] (PNA; 5 R-MP-gamma units; C-terminal amide; modified_base (2)..(2) R-MP-gamma-backbone modified nucleotide; modified_base (4)..(4) R-MP-gamma-backbone modified nucleotide; modified_base (6)..(6) R-MP-gamma-backbone modified nucleotide; modified_base (8)..(8) R-MP-gamma-backbone modified nucleotide; modified_base (10)..(10) R-MP-gamma-backbone modified nucleotide)
−ΔG° [3, 8]: 17.4 kcal/mol
−ΔH° [3, 8]: 85.1 kcal/mol
−ΔTS° [3, 8]: 67.6 kcal/mol
association rate constant ka [2]: 660000 M⁻¹ s⁻¹
dissociation rate constant kd [2]: 0.3 × 10^−4 ^† s^−1
Kd [2, 7]: 0.041 nM
SPR-derived Kd relative to Kd determined by UV melting experiments ([2]; Table 3 versus Table 2, DNA target): 12 fold
Kd [4]: 0.0035 nM
−ΔG° [4]: 15.5 ± 0.24 kcal/mol
−ΔH° [4]: 78.6 ± 3.35 kcal/mol
−ΔTS° [4]: 63.3 ± 2.87 kcal/mol
